Measured values published in publication PMC6130761, “Isolation, crystal structure determination and cholinesterase inhibitory potential of isotalatizidine hydrate from Delphinium denudatum” (Pharmaceutical Biology, 2016).

Experiments:
[1] = target: T1, BChE (horse-serum E.C 3.1.1.8) (Equus caballus, UniProt P81908); experiment: Cholinesterase inhibition assay (Ellman spectrophotometric method), BChE; assay type: biochemical; conditions: for Type of inhibition (BChE): Lineweaver-Burk, Dixon plots and replots, 50, 75, 100 μM of compound 1
T1 construct: purchased Sigma Aldrich; host or cells: horse serum
Protocol: Enzyme (AChE/BChE) inhibition activities were measured by spectrophotometric method as described in literature (Ellman et al. [1961]). Reported protocol and assay conditions were followed throughout (Rocha et al. [1993]). AChI and AChCl substrates were used to assay AChE and BChE, respectively. DTNB was used as reagent for the measurement of cholinesterase activity. Solution containing DTNB (0.2 mM) in 62 mM sodium phosphate buffer (pH 8.0, 880 μL), test compound solution (40 μL) and AChE or BChE solution (40 μL) were mixed, incubated for 15 min (25 °C). AChE or BChE (40 μL), were added to initiate the respective solution. The hydrolysis of AChE and BChE were noted by naked eye due to formation of yellow colour 5-thio-2-nitrobenzoate anion at a wavelength of 412 nm (15 min). Reactions were performed in triplicate in a BMS spectrophotometer (USA) and the results presented are average values.

[2] = target: T2, AChE (Electric-eel EC 3.1.1.7) (Electrophorus electricus, UniProt O42275); experiment: biochemical; assay type: biochemical; conditions: for Type of inhibition (AChE): Lineweaver-Burk, Dixon plots and replots, 50, 75, 100 μM of compound 1
T2 construct: purchased Sigma Aldrich

[3] = listed as isotalatazidine hydrate
[4] = listed as isotalatizidine hydrate

T1 sequence (P81908 whole entry): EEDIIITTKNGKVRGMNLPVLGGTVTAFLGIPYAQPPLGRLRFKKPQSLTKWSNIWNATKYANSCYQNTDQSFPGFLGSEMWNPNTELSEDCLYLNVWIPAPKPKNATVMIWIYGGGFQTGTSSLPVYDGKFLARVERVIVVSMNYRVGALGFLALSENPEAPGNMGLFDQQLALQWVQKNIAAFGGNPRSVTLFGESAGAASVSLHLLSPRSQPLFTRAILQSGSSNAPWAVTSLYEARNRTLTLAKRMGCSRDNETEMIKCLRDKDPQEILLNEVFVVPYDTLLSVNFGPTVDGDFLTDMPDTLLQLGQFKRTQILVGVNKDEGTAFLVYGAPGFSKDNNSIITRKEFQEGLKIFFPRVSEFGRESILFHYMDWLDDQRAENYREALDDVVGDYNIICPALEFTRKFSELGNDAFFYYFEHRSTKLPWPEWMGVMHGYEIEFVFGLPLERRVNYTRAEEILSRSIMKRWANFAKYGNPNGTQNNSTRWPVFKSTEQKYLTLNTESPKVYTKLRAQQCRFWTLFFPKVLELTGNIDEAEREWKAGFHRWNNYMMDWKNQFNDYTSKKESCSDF
T2 sequence (O42275 24-633): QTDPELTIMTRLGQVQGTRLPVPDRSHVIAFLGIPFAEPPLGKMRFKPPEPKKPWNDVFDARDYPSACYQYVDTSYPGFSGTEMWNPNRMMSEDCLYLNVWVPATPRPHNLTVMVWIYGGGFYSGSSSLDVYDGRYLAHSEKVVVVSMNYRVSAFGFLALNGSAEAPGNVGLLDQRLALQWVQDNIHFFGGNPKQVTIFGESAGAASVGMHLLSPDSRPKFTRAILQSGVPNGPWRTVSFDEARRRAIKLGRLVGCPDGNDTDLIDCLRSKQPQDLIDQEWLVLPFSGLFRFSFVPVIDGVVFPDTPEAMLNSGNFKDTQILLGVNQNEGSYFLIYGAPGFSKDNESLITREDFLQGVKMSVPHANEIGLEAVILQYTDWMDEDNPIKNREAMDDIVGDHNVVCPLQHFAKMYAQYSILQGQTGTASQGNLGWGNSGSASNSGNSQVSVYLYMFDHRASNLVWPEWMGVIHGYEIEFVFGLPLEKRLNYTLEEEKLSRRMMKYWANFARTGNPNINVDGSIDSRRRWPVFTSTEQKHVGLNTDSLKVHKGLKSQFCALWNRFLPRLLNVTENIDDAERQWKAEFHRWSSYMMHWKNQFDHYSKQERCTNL

SMILES: CCN1CC2(COC)CCC(O)C34C5CC6C(OC)CC(O)(C(CC23)C14)C5C6O (centres unmarked) [Isotalatizidine hydrate, isotalatizidine hydrate]
- Type of inhibition (BChE) [1]: Competitive
- Type of inhibition (BChE) [1, 3]: competitive type inhibition
- Type of inhibition (BChE) [1, 4]: competitive inhibitor
- IC50 ([1]; standard error of mean of five assays, DTNB, pH 8.0, 25 °C, read-out: BChE ± SEM (IC50)): 21.4 ± 0.23 µM
- Type of inhibition (AChE) [2]: Competitive
- Type of inhibition (AChE) [2, 3]: competitive type inhibition
- Type of inhibition (AChE) [2, 4]: competitive inhibitor
- IC50 ([2]; standard error of mean of five assays, DTNB, pH 8.0, 25 °C, read-out: AChE ± SEM (IC50)): 12.1 ± 0.43 µM
